These results are taken from patent US8530493B2, “Indolopyridines as Eg5 kinesin modulators” (4SC AG, priority 2006, dated 2013).

The EC50 is the concentration giving half of the maximal effect.

Assay [1] has as its system RKO p27 induced (arrested) colon adenocarcinoma cells. Nature of the assay: Alamar Blue cell viability assay, RKO p27 induced by Ponasterone A (arrested). The format is cell-based. The note with it: Homo sapiens, RKOp27, Table B1, cells arrested by Ponasterone A-induced p27Kip1, 72 hours, read-out: −log EC50 RKO p27 induced (arrested) (converted). The method, then:
(§1) To determine the cell cycle specific mode of action, subclones of RKO colon adenocarcinoma cells (RKOp21 or RKOp27 as described by Schmidt et al. in Oncogene 19, 2423-2429; 2000) are seeded into 96 well flat bottom plates at a density of 16000 cells per well in a volume of 50 μl per well in DMEM growth medium with 10% FCS containing 10 μM Ponasterone A. 24 hours after seeding the 50 μl each of the compound dilutions in DMEM medium are added into each well of the 96-well plate. Each compound dilution is tested as triplicates. Wells containing untreated control cells are filled with 50 μl DMEM medium containing 1% DMSO. The cells are then incubated with the substances for 72 hours at 37° C. in a humidified atmosphere containing 5% carbon dioxide. To determine the viability of the cells, 10 μl of an Alamar Blue solution (Biosource) are added and the fluorescence is measured at an extinction of 544 nm and an emission of 590 nm. For the calculation of the cell viability the emission value from untreated cells is set as 100% viability and the emission rates of treated cells are set in relation to the values of untreated cells. Viabilities are expressed as % values. The Graphpad Prism program (GraphPad Software, Inc) is used for the calculation of EC50 values out of the obtained dose-response curves. Viability is compared of proliferating cells grown in the absence of the inducer Ponasterone A, versus viability of cells arrested by the expression of ectopic p27Kip1 induced by Ponasterone A.
(§2) Representative values for anti-proliferation/cytotoxicity [measured as −log EC50 (mol/l)] determined in the aforementioned assays follow from the following tables B1, B2 and B3, in which the numbers of the compounds correspond to the numbers of the examples.

The subject of assay [2] is RKO p27 uninduced (proliferating) colon adenocarcinoma cells. Nature of the assay: Alamar Blue cell viability assay, RKO p27 uninduced (proliferating). The format is cell-based. The note with it: Homo sapiens, RKOp27, Table B1, anti-proliferative/cytotoxic activity, 72 hours, read-out: −log EC50 RKO p27 uninduced (proliferating) (converted). The method, then:
The anti-proliferative/cytotoxic activity of the compounds described herein can be tested on subclones of RKO human colon adenocarcinoma cells (Schmidt et al., Oncogene 19, 2423-2429; 2000) using the Alamar Blue cell viability assay (described in O'Brien et al. Eur J Biochem 267, 5421-5426, 2000). The compounds are dissolved as 10 mM solutions in DMSO and subsequently diluted in semi-logarithmic steps. DMSO dilutions are further diluted 1:100 into Dulbecco's modified Eagle's medium (DMEM) containing 10% fetal calf serum to a final concentration twice as much as the final concentration in the test. RKO subclones are seeded into 96 well flat bottom plates at a density of 4000 cells per well in a volume of 50 μl per well. 24 hours after seeding the 50 μl each of the compound dilutions in DMEM medium are added into each well of the 96 well plate. Each compound dilution is tested as triplicates. Wells containing untreated control cells are filled with 50 μl DMEM medium containing 1% DMSO. The cells are then incubated with the substances for 72 hours at 37° C. in a humidified atmosphere containing 5% carbon dioxide. To determine the viability of the cells, 10 μl of an Alamar Blue solution (Biosource) are added and the fluorescence is measured at an extinction of 544 nm and an emission of 590 nm. For the calculation of the cell viability the emission value from untreated cells is set as 100% viability and the emission rates of treated cells are set in relation to the values of untreated cells. Viabilities are expressed as % values. The Graphpad Prism program is used for the calculation of EC50 values for anti-proliferative/cytotoxic activity out of the obtained dose-response curves.
as §1, §2
(In general: The colour change of resazurin is a common sign of viable cells or microbes.)

On to `COc1ccc2[nH]c3c(c2c1)C[C@@]1(C)C(=O)N(CCN(C)C)C(=O)N1[C@@H]3c1cccc(O)c1` (single isomer, unassigned) [Example 7b, (−)-2-(2-Dimethylamino-ethyl)-10-(3-hydroxy-phenyl)-6-methoxy-3a-methyl-3a,4,9,10-tetrahydro-2,9,10a-triaza-cyclopenta[b]fluorene-1,3-dione], for which the EC50 was ≥ 3.16 µM in assay [1] and ≤ 39.8 nM in assay [2].

For the molecule `CCNCCN1C(=O)N2[C@H](c3cccc(O)c3)c3[nH]c4ccc(Cl)cc4c3C[C@@]2(C)C1=O` (racemic) [Example 37, (3aSR,10RS)-6-Chloro-2-(2-ethylamino-ethyl)-10-(3-hydroxy-phenyl)-3a-methyl-3a,4,9,10-tetrahydro-2,9,10a-triaza-cyclopenta[b]fluorene-1,3-dione], the EC50 was ≥ 0.316 µM in assay [1] and ≤ 39.8 nM in assay [2].

In the case of `CCNCCN1C(=O)N2[C@H](c3cccc(O)c3)c3[nH]c4ccc(OC)cc4c3C[C@@]2(C)C1=O` (racemic) [Example 35, (3aSR,10RS)-2-(2-Ethylamino-ethyl)-10-(3-hydroxy-phenyl)-6-methoxy-3a-methyl-3a,4,9,10-tetrahydro-2,9,10a-triaza-cyclopenta[b]fluorene-1,3-dione], the EC50 in assay [1] is ≥ 3.16 µM; in assay [2], ≤ 39.8 nM.

Regarding `COc1ccc2[nH]c3c(c2c1)C[C@@]1(C)C(=O)N(CCCn2ccnc2)C(=O)N1[C@@H]3c1cccc(O)c1` (racemic) [Example 20, (3aSR,10RS)-10-(3-Hydroxy-phenyl)-2-(3-imidazol-1-yl-propyl)-6-methoxy-3a-methyl-3a,4,9,10-tetrahydro-2,9,10a-triaza-cyclopenta[b]fluorene-1,3-dione], the EC50 was ≥ 3.16 µM in assay [1] and ≤ 39.8 nM in assay [2].

Take `C[C@@]12Cc3c([nH]c4ccc(Cl)cc34)[C@@H](c3cccc(O)c3)N1C(=O)N(CCn1ccnc1)C2=O` (racemic) [Example 31, (3aSR,10RS)-6-Chloro-10-(3-hydroxy-phenyl)-2-(2-imidazol-1-yl-ethyl)-3a-methyl-3a,4,9,10-tetrahydro-2,9,10a-triaza-cyclopenta[b]fluorene-1,3-dione]: the concentration for a half-maximal effect (EC50) was ≥ 3.16 µM in assay [1] and 39.8 to 251 nM in assay [2].

Take `CCOc1ccc2[nH]c3c(c2c1)C[C@@]1(C)C(=O)N(C)C(=O)N1[C@@H]3c1cccc(O)c1` (racemic) [Example 1, (3aSR,10RS)-6-Ethoxy-10-(3-hydroxy-phenyl)-2,3a-dimethyl-3a,4,9,10-tetrahydro-2,9,10a-triaza-cyclopenta[b]fluorene-1,3-dione]: the EC50 in assay [1] is ≥ 3.16 µM; in assay [2], 39.8 to 251 nM.

Turning to `CC(C)NCCN1C(=O)N2[C@H](c3cccc(O)c3)c3[nH]c4ccc(Cl)cc4c3C[C@@]2(C)C1=O` (racemic) [Example 38, (3aSR,10RS)-6-Chloro-10-(3-hydroxy-phenyl)-2-(2-isopropylamino-ethyl)-3a-methyl-3a,4,9,10-tetrahydro-2,9,10a-triaza-cyclopenta[b]fluorene-1,3-dione], the EC50 is ≥ 0.316 µM in assay [1] and ≤ 39.8 nM in assay [2].

Take `C[C@@]12Cc3c([nH]c4ccc(Cl)cc34)[C@@H](c3cccc(O)c3)N1C(=O)N(CCN1CCC1)C2=O` (racemic) [Example 29, (3aSR,10RS)-2-(2-Azetidin-1-yl-ethyl)-6-chloro-10-(3-hydroxy-phenyl)-3a-methyl-3a,4,9,10-tetrahydro-2,9,10a-triaza-cyclopenta[b]fluorene-1,3-dione]: the EC50 is ≥ 3.16 µM in assay [1] and ≤ 39.8 nM in assay [2].

As for `CCNCCCN1C(=O)N2[C@H](c3cccc(O)c3)c3[nH]c4ccc(OC)cc4c3C[C@@]2(C)C1=O` (racemic) [Example 51, (3aSR,10RS)-2-(3-Ethylamino-propyl)-10-(3-hydroxy-phenyl)-6-methoxy-3a-methyl-3a,4,9,10-tetrahydro-2,9,10a-triaza-cyclopenta[b]fluorene-1,3-dione], the concentration giving a half-maximal response (EC50) is ≥ 3.16 µM in assay [1] and ≤ 39.8 nM in assay [2].

With `C[C@@]12Cc3c([nH]c4ccc(Cl)cc34)[C@@H](c3cccc(O)c3)N1C(=O)N(CCN)C2=O` (racemic) [Example 30, (3aSR,10RS)-2-(2-Amino-ethyl)-6-chloro-10-(3-hydroxy-phenyl)-3a-methyl-3a,4,9,10-tetrahydro-2,9,10a-triaza-cyclopenta[b]fluorene-1,3-dione], the 50% effective concentration (EC50) in assay [1] was ≥ 3.16 µM; in assay [2], ≤ 39.8 nM.

Regarding `COc1ccc2[nH]c3c(c2c1)C[C@@]1(C)C(=O)N(C)C(=O)N1[C@@H]3c1cccc(O)c1` (racemic) [Example 3, (3aSR,10RS)-10-(3-Hydroxy-phenyl)-6-methoxy-2,3a-dimethyl-3a,4,9,10-tetrahydro-2,9,10a-triaza-cyclopenta[b]fluorene-1,3-dione], the EC50 in assay [1] is ≥ 3.16 µM; in assay [2], ≤ 39.8 nM.

`CCOc1ccc2[nH]c3c(c2c1)C[C@@]1(C)C(=O)N(CCNC)C(=O)N1[C@@H]3c1cccc(O)c1` (racemic) [Example 41, (3aSR,10RS)-6-Ethoxy-10-(3-hydroxy-phenyl)-3a-methyl-2-(2-methylamino-ethyl)-3a,4,9,10-tetrahydro-2,9,10a-triaza-cyclopenta[b]fluorene-1,3-dione]: the EC50 in assay [1] was ≥ 3.16 µM; in assay [2], ≤ 39.8 nM.

For the molecule `CNCCN1C(=O)N2[C@H](c3cccc(O)c3)c3[nH]c4ccc(Cl)cc4c3C[C@@]2(C)C1=O` (racemic) [Example 28, (3aSR,10RS)-6-Chloro-10-(3-hydroxy-phenyl)-3a-methyl-2-(2-methylamino-ethyl)-3a,4,9,10-tetrahydro-2,9,10a-triaza-cyclopenta[b]fluorene-1,3-dione], the EC50 in assay [1] was ≥ 3.16 µM; in assay [2] it was ≤ 39.8 nM.

Regarding `CN1C(=O)N2[C@H](c3cccc(O)c3)c3[nH]c4ccc(Br)cc4c3C[C@@]2(C)C1=O` (racemic) [Example 4, (3aSR,10RS)-6-Bromo-10-(3-hydroxy-phenyl)-2,3a-dimethyl-3a,4,9,10-tetrahydro-2,9,10a-triaza-cyclopenta[b]fluorene-1,3-dione], the values for the concentration giving a half-maximal response (EC50) in assay [1] and in assay [2] were ≥ 3.16 µM and 39.8 to 251 nM, respectively.

Turning to `CNCCN1C(=O)N2[C@H](c3cccc(O)c3)c3[nH]c4ccc(OC(F)F)cc4c3C[C@@]2(C)C1=O` (racemic) [Example 42, (3aSR,10RS)-6-(1,1-Difluoro-methoxy)-10-(3-hydroxy-phenyl)-3a-methyl-2-(2-methylaminoethyl)-3a,4,9,10-tetrahydro-2,9,10a-triaza-cyclopenta[b]fluorene-1,3-dione], the EC50 is ≥ 3.16 µM in assay [1] and ≤ 39.8 nM in assay [2].

`C[C@@]12Cc3c([nH]c4ccc(Cl)cc34)[C@@H](c3cccc(O)c3)N1C(=O)N(CCN1CCCC1)C2=O` (racemic) [Example 17, (3aSR,10RS)-6-Chloro-10-(3-hydroxy-phenyl)-3a-methyl-2-(2-pyrrolidin-1-yl-ethyl)-3a,4,9,10-tetrahydro-2,9,10a-triaza-cyclopenta[b]fluorene-1,3-dione]: the concentration for a half-maximal effect (EC50) in assay [1] is ≥ 3.16 µM; in assay [2] it was ≤ 39.8 nM.

`COc1ccc2[nH]c3c(c2c1)C[C@@]1(C)C(=O)N(CCN2CCC(F)(F)C2)C(=O)N1[C@@H]3c1cccc(O)c1` (racemic) [Example 34, (3aSR,10RS)-2-[2-(3,3-Difluoro-pyrrolidin-1-yl)-ethyl]-10-(3-hydroxy-phenyl)-6-methoxy-3a-methyl-3a,4,9,10-tetrahydro-2,9,10a-triaza-cyclopenta[b]fluorene-1,3-dione]: the results for the EC50 in assay [1] and in assay [2] were ≥ 3.16 µM and 39.8 to 251 nM, respectively.
